Counter-ions that a name gives are not always drawn. Like-named read-outs stand apart in the source and are kept apart here.
Assay: Solvent solubility screen by solvent addition technique
Assay type: physicochemical
Conditions: for observation in solubility screen: 40° C.; for solubility: 40 °C, thermodynamic from solid, amorphous input, read-out: Solubility (mg/mL) at 40° C.
Method: The amorphous form of Compound A bis-mesylate salt was used as the input material for the solubility screen. Solubility values were estimated by a solvent addition technique in order to provide approximate values for generating slurries during later experiments. Approximately 15 mg of amorphous material was weighed out into 24 vials. Each solvent was added to the appropriate vial in 10 aliquots of 10 μl, 5 aliquots of 20 μl, 3 aliquots of 100 μl and 1 aliquot of 500 μl or until the material dissolved. In between additions, the sample was heated to 40° C. To vials which already contained 1000 μl of solvent but still had observable solid material, a further aliquot of 1000 μl of solvent was added. If 2000 μl of solvent was added without dissolution of the solid, solubility was calculated to be below this point.

Nc1ncccc1-c1nc2ccc(-c3ccccc3)nc2n1-c1ccc(C2(N)CCC2)cc1 [Compound A bis-mesylate salt, 3-(3-(4-(1-aminocyclobutyl)phenyl)-5-phenyl-3H-imidazo[4,5-b]pyridin-2-yl)pyridin-2-amine]
observation in solubility screen (1,4-Dioxane): Colourless solution | observation in solubility screen (2-Methyl THF): Colourless solution | observation in solubility screen (2-Propanol): Good solubility | observation in solubility screen (2-Propanol:water (50:50)): Good solubility | solubility (aqueous with cosolvent or surfactant or cyclodextrin, 2-Propanol:water (50:50)): ~400 mg/mL | solubility (organic solvent or mixture, 1,4-Dioxane): < 8 mg/mL | solubility (organic solvent or mixture, 1-Butanol): < 8 mg/mL | solubility (organic solvent or mixture, 2-Ethoxyethanol): < 8 mg/mL | solubility (organic solvent or mixture, 2-Methyl THF): < 8 mg/mL | solubility (organic solvent or mixture, 2-Propanol): ~25 mg/mL | solubility (organic solvent or mixture, Acetone:water (90:10)): ~16 mg/mL | solubility (organic solvent or mixture, Acetone): < 8 mg/mL | solubility (organic solvent or mixture, Acetonitrile): < 8 mg/mL | solubility (organic solvent or mixture, Cyclohexane): < 8 mg/mL | solubility (organic solvent or mixture, Dichloromethane): < 8 mg/mL | solubility (organic solvent or mixture, Diisopropyl ether): < 8 mg/mL | solubility (organic solvent or mixture, Dimethylsulfoxide): ~126 mg/mL | solubility (organic solvent or mixture, Ethanol): < 8 mg/mL | solubility (organic solvent or mixture, Ethyl acetate): < 8 mg/mL | solubility (organic solvent or mixture, Heptane): < 8 mg/mL | solubility (organic solvent or mixture, Isopropyl acetate): < 8 mg/mL | solubility (organic solvent or mixture, Methanol): ~40 mg/mL | solubility (organic solvent or mixture, Methylethyl ketone): < 8 mg/mL | solubility (organic solvent or mixture, Methylisobutyl ketone): < 8 mg/mL | solubility (organic solvent or mixture, Tetrahydrofuran): < 8 mg/mL | solubility (organic solvent or mixture, Toluene): < 8 mg/mL | solubility (organic solvent or mixture, tert-Butylmethyl ether): < 8 mg/mL | solubility (Water): ~769 mg/mL | observation in solubility screen (Acetone:water (90:10)): Good solubility | observation in solubility screen (Cyclohexane): Colourless solution | observation in solubility screen (Dichloromethane): Colourless solution | observation in solubility screen (Diisopropyl ether): Colourless solution | observation in solubility screen (Dimethylsulfoxide): Good solubility | observation in solubility screen (Heptane): Colourless solution | observation in solubility screen (Isopropyl acetate): Colourless solution | observation in solubility screen (Methanol): Good solubility | observation in solubility screen (Methylethyl ketone): Colourless solution | observation in solubility screen (Methylisobutyl ketone): Colourless solution | observation in solubility screen (Toluene): Colourless solution | observation in solubility screen (Water): Good solubility | observation in solubility screen (tert-Butylmethyl ether): Colourless solution
